Test results published in patent publication US10858384B2, “Synthetic molecule constructs” (KODE BIOTECH LIMITED, priority 2004, dated 2020).

Columns and labels:
[1] = Solubility of synthetic glycolipids in hot PBS; type: physicochemical; conditions: hot PBS
Text: In the context of this description the phrase “water soluble” means a stable, single phase system is formed when the synthetic molecule construct is contacted with water or saline (such as PBS) in the absence of organic solvents or detergents, and the term “solution” has a corresponding meaning.
For use in the transformation of cells the first criterion that synthetic glycolipids must satisfy is that they are soluble in aqueous solvents, e.g. phosphate buffered saline.
Initial tests on the molecules were to establish solubility and thus eliminate those molecules that were unsuitable for use in the transformation of cells.

RBCs [2] = assay: Detectable transformation ability of synthetic glycolipids (agglutination); type: cell-based; conditions: agglutination with the appropriate antibody
Text: The synthetic glycolipid must also be able to insert into the membrane and be recognisable to the appropriate antibody for transformation to be detected by agglutination. Initial tests on the molecules were to establish solubility and thus eliminate those molecules that were unsuitable for use in the transformation of cells.

RBCs [3] = assay: Evaluation of insertion of different lipid tails by agglutination with the relevant antisera; type: cell-based; set-up: scale not given here; conditions: second series
Text: Transformation of RBCs with synthetic glycolipids with different lipid tails was first evaluated (Tables 22 and 24).

RBCs [4] = assay: Insertion efficiency: post-transformation supernatant solutions, tube serology; type: cell-based
Method: The post-transformation supernatant solutions (from Atri-sp-Ad-DOPE (I) at 0.08 mg/mL, 0.05 mg/mL and 0.03 mg/mL, and Btri-sp-Ad-DOPE (VI) at 0.6 mg/mL, 20 μL) were added neat and in a 1:2 dilution to washed, packed RBCs (60 μL). The tubes were incubated in a 37° C. waterbath for one hour, with mixing taking place every 15 minutes.
The transformed RBCs were washed 3× with PBS and then suspended in Cellstab™ at the appropriate concentration for serology testing.

RBCs [5] = assay: Insertion efficiency: post-transformation solutions concentrated 20x, Diamed serology; type: cell-based; conditions: post-transformation solution concentrated 20×, from 0.60 mg/mL
Method: In addition, the post-transformation solutions were concentrated 20× and compared in parallel with the transformation solutions of known concentration. Only the post-transformation solutions derived from the 0.08 mg/mL Atri-sp-Ad-DOPE (I) and 0.6 mg/mL Btri-sp-Ad-DOPE (VI) solutions were tested.
Post-transformation solutions (20 μL) were dialysed (pore size 500 Da) against de-ionised water for 2 days. The samples were left to dry in a fumehood for 10 days. At the end of this time they were transferred into a rotavapor flask and set on the rotavapor to rotate under vacuum with no heat overnight. Samples were dried in a water bath at 40° C. and washed over into smaller vessels with chloroform-methanol 2:1 leaving significant amounts of dried cellular material. The chloroform-methanol 2:1 washings were dried down, washed over again into test-tubes with chloroform-methanol 2:1 and dried down. These samples were redissolved in 1 mL of 1× PBS and used for transformation experiments. The cellular material in the bottom of the flasks was washed out with water into another set of tubes.
The post-transformation solutions (from Atri-sp-Ad-DOPE (I) at 0.08 mg/mL and Btri-sp-Ad-DOPE (VI) at 0.6 mg/mL, 20 μL) were added to washed, packed RBCs (60 μL). […]

[6] = system: group O red blood cells (RBCs); assay: Tube serology of group O RBCs transformed at 37° C. with synthetic glycolipids; type: cell-based, human; conditions: 0.25 mg/mL, Day 44
Method: (§1) Washed packed group O red blood cells (RBCs) (3 parts by volume) and the synthetic glycolipid solution (1 part by volume, varying concentrations) were added to an eppendorf tube. The tube was incubated in a 37° C. waterbath for one hour, mixing every 15 minutes. […]
(§2) Tube serology and Diamed gel-card results for RBCs transformed with the different synthetic molecule constructs are provided in Table 38. Results for the stability of the RBCs transformed with the different synthetic glycolipids at different concentrations are provided in Tables 39 to 44.

[7] = system: group O red blood cells (RBCs); assay: Diamed gel-card agglutination of group O RBCs transformed at 37° C. with synthetic glycolipids; type: cell-based, human; set-up: scale not given here; conditions: 0.25 mg/mL; Day 116; Cellstab
Method: as §1, §2

embryos = assay: Embryo modification, test for insertion by fluorescence; type: cell-based
Method: The embryo zona pellucida was removed by treating embryos with 0.5% pronase in a 37° C. oven for 6 minutes or until all zonas were removed. Micro-drops were prepared by adding 5 μl of synthetic glycolipid Atri-sp-Ad-DOPE (I) or Btri-sp-Ad-DOPE (VI), at a concentration of 1 mg/mL to a 45 μl drop of M2 media overlaid with mineral oil. All embryo groups were incubated in the 50 μl micro-drops for 1 hour at 37° C. Embryos from experimental and control groups were washed 3× with M2 media.
Embryos from experimental and control groups were placed into a micro-drop of corresponding antibody and incubated for 30 min at 37° C. Embryos from experimental and control groups were washed 3× with M2 media.
Embryos from all experimental and control groups were placed into micro-drops of anti-mouse Ig FITC (1:50 dilution anti-mouse Ig FITC in M2) and incubated for 30 min at 37° C. Embryos from experimental and control groups were washed 3× with M2 media. Embryos were mounted on microscope slides in a 5 μl drop of M2 and the drops overlaid with oil.
The slides were viewed under a fluorescence microscope.

[8] = system: endometrial cells and embryos; assay: Attachment of transformed endometrial cells to modified embryos; type: cell-based; conditions: 15 minutes at 37° C.
Method: Modified embryos (BioG-Avidin-BioIgG^B and BioG-Avidin-BioIgM^A) were prepared in accordance with the methods described in the specification accompanying the international application no. PCT/NZ03/00059 (published as WO03/087346).
Two concave glass slides were prepared, one with two wells of synthetic glycolipid Atri-sp-Ad-DOPE (I) inserted endometrial cells and the other with two wells of synthetic glycolipid Btri-sp-Ad-DOPE (VI) inserted endometrial cells.
The embryos were surrounded with endometrial cells. The wells were covered with mineral oil and incubated for 15 minutes at 37° C. Using a wide bore handling pipette each group of embryos were carefully transferred to a fresh drop of M2 media. The embryos were gently washed. The embryos were gently transferred into 2 μL of M2 media on a marked microscope slide. Each drop was overlaid with mineral oil
Under a central plane of focus on an Olympus microscope the number of endometrial cells adhered to the embryos in each group was assessed. The number of cells adhered to each embryo was recorded.

SMILES: CCCCCCCC/C=C\CCCCCCCC(=O)OC[C@H](COP(=O)(O)OCCNC(=O)CCCCC(=O)NCCCO[C@@H]1O[C@H](CO)[C@H](O)[C@H](O[C@H]2O[C@H](CO)[C@H](O)[C@H](O)[C@H]2O)[C@H]1O[C@@H]1O[C@@H](C)[C@@H](O)[C@@H](O)[C@@H]1O)OC(=O)CCCCCCC/C=C\CCCCCCCC [Btri-sp-Ad-DOPE (VI)]
- Water solubility [1]: Yes
- Detectable transformation ability (RBCs [2]): Yes
- Agglutination score (RBCs [3]; 60 μg/mL, Alba anti-B): 0
- Agglutination score (RBCs [3]; 60 μg/mL, Bio anti-B): 0
- Agglutination score (RBCs [3]; 125 μg/mL, Alba anti-B): 0
- Agglutination score (RBCs [3]; 125 μg/mL, Bio anti-B): 0
- Score (tube serology) (RBCs [4]; 1:2, pre-trans conc 0.60 mg/mL): 0
- Score (tube serology) (RBCs [4]; neat, pre-trans conc 0.60 mg/mL): vw+
- Score (Diamed serology) (RBCs [5]): 0
- Agglutination, manual tube serology, Bioclone anti-B ([6]; Alsevers): w+
- Agglutination, manual tube serology, Bioclone anti-B ([6]; Cellstab): ^‡
- Agglutination, Diamed gel-cards, Albaclone anti-B [7]: 0
- Transformation of embryos visualised by fluorescence (embryos; 1 mg/mL stock in micro-drop, 1 hour 37° C.): negative result
- Fluorescence score after incubation with IgFITC Probe (embryos; embryos, inserted antigen 1 mg/mL, 1 hour at 37° C., 1° antibody Anti-B Bioclone, anti-mouse Ig FITC 1:50): 0
- Average number of endometrial cells attached to modified embryos ([8]; embryos modified with BioG-Avidin-BioIgG^B): 6.7
- Average number of endometrial cells attached to modified embryos ([8]; embryos modified with BioG-Avidin-BioIgM^A): 3.4
